Tests used:
MDA-MB-468 [1] = assay: normalised viability (% of control), CellTiter-Blue; higher = more viable cells (about 100 = DMSO control); details: incubation time: 72 h
How it was run: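 The reported figure is normalised viability at a single listed concentration of the series. Breast cancer cell lines (20 µl suspension) went onto 384-well plates holding compound in 5 µl medium for 72 h. CellTiter-Blue (2.5 µl, 2 h, 37 °C) was read by fluorescence at 560/590 nm, and each plate was scaled to vehicle at 100 and a positive kill control at 0.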

DU-4475 = details: 72 h
How it was run: (§1)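 EC50 is the value from a fitted percent-inhibition dose-response curve, censored at the highest concentration, and rows with zero drug sensitivity score were not kept. The underlying assay seeded breast cancer cell lines in 20 µl onto 384-well plates pre-loaded with compound in 5 µl medium for 72 h. Viability was then read by CellTiter-Blue fluorescence at 560/590 nm after 2 h at 37 °C, with each plate normalised to vehicle and a positive kill control.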

MDA-MB-453 [2] = details: 72 h
How it was run: as §1

HDQ-P1 = details: 72 h
How it was run: as §1

CAL-51 = details: 72 h
How it was run: as §1

CAL-85-1 [3] = details: 72 h
How it was run: as §1

HCC1937 = details: 72 h
How it was run: as §1

MDA-MB-231 [4] = details: 72 h
How it was run: as §1

HCC1143 [5] = details: 72 h
How it was run: as §1

MDA-MB-468 [6] = details: 72 h
How it was run: as §1

Hs578T = details: 72 h
How it was run: as §1

CAL-120 [7] = details: 72 h
How it was run: as §1

MFM-223 = details: 72 h
How it was run: as §1

SK-BR-3 = details: 72 h
How it was run: (§2)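 For viability and cell death testing, 384-well plates carried compound at 5 concentrations in 10-fold steps over a compound-specific 10,000-fold range, and breast cancer cell lines were seeded in 20 µl suspension. After 72 h incubation, cell death was read by CellTox Green fluorescence (485/520 nm) before viability was read by CellTiter-Glo luminescence. EC50 was fitted from the dose-response curves and censored at the top concentration. Normalisation on each plate was to 0.1 % DMSO and a positive kill control.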

MDA-MB-453 [8] = details: 72 h; remark: listed apart in the source
How it was run: as §2

MCF-10A = details: 72 h
How it was run: as §2

HCC1599 = details: 72 h
How it was run: as §2

CAL-85-1 [9] = details: 72 h; remark: listed apart in the source
How it was run: as §2

HCC1143 [10] = details: 72 h; remark: listed apart in the source
How it was run: as §2

CAL-120 [11] = details: 72 h; remark: listed apart in the source
How it was run: as §2

MDA-MB-436 = details: 72 h
Procedure: (§3)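 Drug sensitivity and resistance testing (DSRT) of breast cancer cell lines in 384-well plates, 5 concentrations in 10-fold dilutions over a compound-specific 10,000-fold range. After 72 h, cytotoxicity was read by CellTox Green fluorescence and viability by CellTiter-Glo luminescence (multiplexed), normalised to DMSO and benzethonium chloride controls. EC50 is the inflection point of the fitted dose-response curve (bottom asymptote free, so it can be relative for partial curves) and is censored at the highest tested concentration. Rows with DSS 0 (no meaningful response) were excluded.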

MDA-MB-231 [12] = details: 72 h; remark: listed apart in the source
Procedure: as §3

O=NN(CCCl)C(=O)NCCCl [Carmustine]
normalised viability (MDA-MB-468 [1]; 10 nM): 107% | normalised viability (MDA-MB-468 [1]; 1000 nM): 102% | normalised viability (MDA-MB-468 [1]; 10000 nM): 103%

COc1cc(F)c(F)c(Nc2ccc(I)cc2F)c1NS(=O)(=O)C1(C[C@H](O)CO)CC1 [RDEA119]
EC50, CellTiter-Blue viability (DU-4475): 42.6 nM | EC50, CellTiter-Blue viability (MDA-MB-453 [2]): 4260 nM | EC50, CellTiter-Blue viability (HDQ-P1): 318 nM | EC50, CellTiter-Blue viability (CAL-51): 196 nM | EC50, CellTiter-Blue viability (CAL-85-1 [3]): 557 nM | EC50, CellTiter-Blue viability (HCC1937): 1310 nM | EC50, CellTiter-Blue viability (MDA-MB-231 [4]): 21.3 nM | EC50, CellTiter-Blue viability (HCC1143 [5]): 159 nM | EC50, CellTiter-Blue viability (MDA-MB-468 [6]): 7180 nM | EC50, CellTiter-Blue viability (Hs578T): 81 nM | EC50, CellTiter-Blue viability (CAL-120 [7]): 585 nM | EC50, CellTiter-Blue viability (MFM-223): 2870 nM | normalised viability (MDA-MB-468 [1]; 10 nM): 94.2% | normalised viability (MDA-MB-468 [1]; 1000 nM): 78.3% | normalised viability (MDA-MB-468 [1]; 10000 nM): 51%

C[C@]1(O)C[C@@H](c2nc(-c3ccc4ccc(-c5ccccc5)nc4c3)c3c(N)nccn32)C1 [Linsitinib]
EC50, CellTiter-Glo (SK-BR-3): 1460 nM | EC50, CellTiter-Glo (MDA-MB-453 [8]): 892 nM | EC50, CellTiter-Glo (MCF-10A): 645 nM | EC50, CellTiter-Glo (HCC1599): 1940 nM | EC50, CellTiter-Glo (CAL-85-1 [9]): 3550 nM | EC50, CellTiter-Glo (HCC1143 [10]): > 10000 nM | EC50, CellTiter-Glo (CAL-120 [11]): 8040 nM | EC50, CellTox Green (MDA-MB-436): 6000 nM | EC50, CellTox Green (MDA-MB-231 [12]): > 10000 nM

Oc1ncnc2[nH]ncc12 [Allopurinol]
normalised viability (MDA-MB-468 [1]; 10 nM): 102% | normalised viability (MDA-MB-468 [1]; 1000 nM): 99.7% | normalised viability (MDA-MB-468 [1]; 10000 nM): 103%
